The values below come from patent publication US11130741B2 (Bioimics AB, priority 2016, dated 2021).

pIC50: −log10 of the molar value. Values after ≈ are worked out from the molar mass of the structure shown. Like-named read-outs stand apart in the source and are kept apart here.

The subject of experiment [1] is E. coli RNase P RNA, M1 RNA. Description: Inhibition of bacterial RNase P activity, IC50 determination (cleavage of pATSerUG by M1 RNA). In kind it is biochemical. Particulars: NI = No inhibition.
The subject of experiment [2] is Enterococcus faecalis (ATCC29212). Description: MIC, broth microdilution (CLSI), Enterococcus faecalis ATCC29212. In kind it is cell-based. Particulars: read-out: MIC E. faecalis ATCC 29212.
In experiment [3] the test system is Pseudomonas aeruginosa (ATCC27853). In words: microbe, parasite or virus in culture. Particulars: read-out: MIC P. aeruginosa ATCC 27853. In kind it is cell-based.
The test system of experiment [4] is Staphylococcus aureus subsp. aureus (ATCC29213). Description: MIC, broth microdilution (CLSI), Staphylococcus aureus subsp. aureus ATCC29213. In kind it is cell-based.
Experiment [5] concerns H. influenzae ATCC 49247. In words: MIC, H. influenzae ATCC 49247. In kind it is cell-based. Particulars: Haemophilus influenzae, ATCC49247.
The subject of experiment [6] is A. baumannii ATCC 17978. In words: MIC, A. baumannii ATCC 17978. In kind it is cell-based. Particulars: Acinetobacter baumannii, ATCC17978.
Experiment [7] relates to P. aeruginosa NTUH-974 (MDR). Description: MIC, P. aeruginosa NTUH-974 (MDR). Format: cell-based.
For experiment [8], the system named is N. gonorrhoeae 612501. Description: MIC, N. gonorrhoeae 612501. In kind it is cell-based. Particulars: Neisseria gonorrhoeae.
For experiment [9], the system named is E. faecium ATCC 700221. Description: MIC, E. faecium ATCC 700221. Format: cell-based.
Experiment [10] has as its system E. coli JW5503. In words: MIC, E. coli JW5503. Format: cell-based. Particulars: Escherichia coli, JW5503, read-out: MIC E. coli JW5503.
The subject of experiment [11] is K. pneumoniae ATCC 43816. In words: MIC, K. pneumoniae ATCC 43816. Format: cell-based. Particulars: Klebsiella pneumoniae, ATCC43816.
Experiment [12] relates to S. aureus ATCC 29213. Description: MIC, S. aureus ATCC 29213 + 50% HS. Format: cell-based. Particulars: Staphylococcus aureus, ATCC29213.
Experiment [13] has as its system S. aureus MRSA ATCC 33591. Description: MIC, S. aureus MRSA ATCC 33591. Format: cell-based.
The subject of experiment [14] is S. pneumoniae ATCC 49619. Description: MIC, S. pneumoniae ATCC 49619. In kind it is cell-based. Particulars: Streptococcus pneumoniae, ATCC49619.
In experiment [15] the test system is Escherichia coli (ATCC25922). Description: MIC, broth microdilution (CLSI), Escherichia coli ATCC25922. (In general: Broth dilution looks for growth in wells or tubes with falling amounts of substance.)
In experiment [16] the test system is Staphylococcus aureus (ATCC25923). Description: MIC, broth microdilution (CLSI), Staphylococcus aureus ATCC25923.
Setting [17] is: ATCC29213, Table 15, read-out: S. aureus ("wound") (MIC).
The mark [18] stands for this setting: ATCC29213, Table 16, read-out: MIC S. aureus ATCC 29213.
Setting [19] is: Pseudomonas aeruginosa, read-out: MIC P. aeruginosa NTUH-974 (MDR).
Setting [20] is: Staphylococcus aureus; read-out: MIC S. aureus MRSA ATCC 33591.
The mark [21] stands for this setting: ATCC25922, read-out: E. coli MIC, Table 15, NI = No inhibition.
The mark [22] stands for this setting: ATCC25922, read-out: MIC E. coli ATCC 25922.
[23] abbreviates: ATCC25923, read-out: S. aureus ("Clinical") MIC.

`O=C(/C=C/c1ccc(F)cc1)Nc1cc(C(F)(F)F)cc2c1Nc1ccccc1S2` [compound 92, E-3-(4-fluorophenyl)-N-(3-(trifluoromethyl)-10H-phenothiazin-1-yl)acrylamide]: in [1], the pIC50 (commonly the IC50 on a negative log10 scale, so that one unit is a factor of ten) is < 4.00. Further, the MIC is 2 mg/L (≈ 4.65 µM) in [2]; > 128 mg/L in experiment [3]; 1 mg/L (≈ 2.32 µM) in experiment [4] (setting [17]); 0.5 mg/L (≈ 1.16 µM) in [4] (setting [18]); > 128 mg/L in [5]; > 128 mg/L in experiment [6]. Also, the MIC in [7] (setting [19]) was > 128 mg/L; in experiment [8] it was 0.25 mg/L (≈ 0.581 µM); in [9] (Enterococcus faecium, ATCC700221; read-out: MIC E. faecium ATCC 700221), 0.5 mg/L (≈ 1.16 µM); in experiment [10] it was > 128 mg/L; in [11] it was > 128 mg/L; in [12], 128 mg/L. The MIC in [13] (setting [20]) is 2 mg/L (≈ 4.65 µM); in experiment [14], 8 mg/L (≈ 18.6 µM); in experiment [15] (setting [21]), > 100 mg/L; in experiment [15] (setting [22]), > 128 mg/L; in experiment [16] (setting [23]) it was 1 mg/L (≈ 2.32 µM).
For `NCC(O)CNC(=O)c1cc2c(c([N+](=O)[O-])c1)Nc1ccccc1S2` (stereo not shown) [compound 94, N-(3-amino-2-hydroxypropyl)-1-nitro-10H-phenothiazine-3-carboxamide], the pIC50 in experiment [1] is 3.69. Moreover, the MIC is 94 mg/L (≈ 261 µM) in experiment [4] (setting [17]), > 100 mg/L in experiment [15] (setting [21]) and 64 mg/L (≈ 178 µM) in experiment [16] (setting [23]).
The matching figures for `NC1CCCC(C(=O)Nc2cc(C(F)(F)F)cc3c2Nc2ccccc2S3)C1` (stereo not shown) [compound 105, 3-Amino-N-(3-(trifluoromethyl)-10H-phenothiazin-1-yl)cyclohexanecarboxamide]: 4.82, 32 mg/L (≈ 78.5 µM), 52 mg/L (≈ 128 µM) and 26 mg/L (≈ 63.8 µM).
The matching figures for `CN(C)CCCN1c2ccc(-c3cc4ccccc4[nH]3)cc2Sc2cccnc21` [compound 135, 3-(7-(1H-Indol-2-yl)-10H-benzo[b]pyrido[2,3-e][1,4]thiazin-10-yl)-N,N-dimethylpropan-1-amine]: 4.49 to 4.62, 8 mg/L (≈ 20 µM), > 100 mg/L and 6 mg/L (≈ 15 µM).
Turning to `CN(C)CCCN1c2ccccc2Sc2cc(-c3cc4ccccc4n3CCN)ccc21` [compound 136, 3-(3-(1-(2-aminoethyl)-1H-indol-2-yl)-10H-phenothiazin-10-yl)-N,N-dimethylpropan-1-amine], the pIC50 in experiment [1] is 4.43. Besides, the figures for the MIC in experiment [4] (setting [17]), in experiment [15] (setting [21]) and in experiment [16] (setting [23]) were 16 mg/L (≈ 36.1 µM), 7 mg/L (≈ 15.8 µM) and 7 mg/L (≈ 15.8 µM), respectively.
In turn, `FC(F)(F)c1cc(NC2CCNCC2)c2c(c1)Sc1ccccc1N2` [compound 141, N-(piperidin-4-yl)-3-(trifluoromethyl)-10H-phenothiazin-1-amine] gave a pIC50 in experiment [1] of 4.92. For the same compound, the MIC in [4] (setting [17]) was determined as 6 mg/L (≈ 16.4 µM); in experiment [15] (setting [21]) it was 12 mg/L (≈ 32.8 µM); in experiment [16] (setting [23]), 3 mg/L (≈ 8.21 µM).
As to `NC1CCCC(C(=O)Nc2cc(C(F)(F)F)cc3nc4ccccc4nc23)C1` (stereo not shown) [compound 211, 3-amino-N-(3-(trifluoromethyl)phenazin-1-yl) cyclohexane-carboxamide], the pIC50 in [1] is 3.59. The results for the MIC in experiment [4] (setting [17]) and in [16] (setting [23]) were 211 mg/L (≈ 543 µM) and 25 mg/L (≈ 64.4 µM), respectively.
Take `N#Cc1ccc2c(c1)Sc1cc(C(F)(F)F)cc(NC3CCN(CCN)CC3)c1N2` [compound 217, 9-((1-(2-Aminoethyl)piperidin-4-yl)amino)-7-(trifluoromethyl)-10H-phenothiazine-3-carbonitrile]: in [1], the pIC50 is 5.00. In addition, the results for the MIC in [4] (setting [17]), in experiment [15] (setting [21]) and in [16] (setting [23]) were 4 mg/L (≈ 9.23 µM), 3 mg/L (≈ 6.92 µM) and 2 mg/L (≈ 4.61 µM), respectively.
With `NCCN(CCN)CCN1CCC(Nc2cc(C(F)(F)F)cc3c2Nc2ccccc2S3)CC1` [compound 234, N1-(2-aminoethyl)-N1-(2-(4-((3-(trifluoromethyl)-10H-phenothiazin-1-yl)amino)piperidin-1-yl)ethyl)ethane-1,2-diamine], the MIC in experiment [4] (setting [17]) was 8 mg/L (≈ 16.2 µM); in [15] (setting [21]), 8 mg/L (≈ 16.2 µM); in [16] (setting [23]) it was 4 mg/L (≈ 8.09 µM).
In turn, `NCCN1CCC(c2nc3cc(C(F)(F)F)cc4c3n2-c2ccccc2S4)CC1` [compound 239, 2-(4-(4-(Trifluoromethyl)imidazo[4,5,1-kl]phenothiazin-1-yl)piperidin-1-yl)ethanamine] showed a pIC50 in [1] of 4.77. Further, the MIC in experiment [15] (setting [21]) was determined as 13 mg/L (≈ 31.1 µM); in experiment [16] (setting [23]), 7 mg/L (≈ 16.7 µM).
`FC(F)(F)c1cc(NC2CCNCC2)cc2c1Nc1ccccc1S2` [compound 240, N-(piperidin-4-yl)-1-(trifluoromethyl)-10H-phenothiazin-3-amine] had a pIC50 in experiment [1] of 4.21. For the same compound, the results for the MIC in experiment [15] (setting [21]) and in [16] (setting [23]) were > 100 mg/L and 23 mg/L (≈ 62.9 µM), respectively.
In turn, `NC1CCCC(C(=O)Nc2cc(C(F)(F)F)cc3c2Nc2ccc(-c4cc5ccccc5[nH]4)cc2S3)C1` (stereo not shown) [compound 242, N-(7-(1H-Indol-2-yl)-3-(trifluoromethyl)-10H-phenothiazin-1-yl)-3-aminocyclohexanecarboxamide] gave a pIC50 in experiment [1] of 5.52. The MIC was > 128 mg/L in [3]; 8 mg/L (≈ 15.3 µM) in experiment [4] (setting [17]); 2 mg/L (≈ 3.83 µM) in experiment [4] (setting [18]); 16 mg/L (≈ 30.6 µM) in [5]; 16 mg/L (≈ 30.6 µM) in [6]; 64 mg/L (≈ 122 µM) in experiment [7] (Pseudomonas aeruginosa; read-out: MIC P. aeruginosa NTUH-974 (MDR)). Also, the MIC in experiment [8] came out at 2 mg/L (≈ 3.83 µM); in [12], 128 mg/L; in [13] (setting [20]) it was 2 mg/L (≈ 3.83 µM); in experiment [14] it was 16 mg/L (≈ 30.6 µM); in [16] (setting [23]), 4 mg/L (≈ 7.65 µM).
`NCCCN1c2ccc(-c3cc4ccccc4[nH]3)cc2Sc2cc(N3CCNCC3)ccc21.O=C(O)C(F)(F)F` [compound 244, 3-(3-(1H-indol-2-yl)-7-(piperazin-1-yl)-10H-phenothiazin-10-yl)propan-1-amine] had a pIC50 in [1] of 5.40. The MIC in experiment [4] (setting [17]) was 4 mg/L; in experiment [15] (setting [21]), 36 mg/L; in experiment [16] (setting [23]), 9 mg/L.
As for `COC(=O)c1ccc2c(c1)Sc1cc(C(F)(F)F)cc(NC3CCN(CCN)CC3)c1N2` [compound 247, Methyl 9-((1-(2-aminoethyl)piperidin-4-yl)amino)-7-(trifluoromethyl)-10H-phenothiazine-3-carboxylate], the pIC50 in experiment [1] is 4.80. Also, the MIC in [4] (setting [17]) came out at 8 mg/L (≈ 17.1 µM); in experiment [15] (setting [21]), 4 mg/L (≈ 8.57 µM); in experiment [16] (setting [23]), 4 mg/L (≈ 8.57 µM).
With `NCCN1CCC(Nc2cc3c(c(C(F)(F)F)c2)Nc2ccccc2S3)CC1` [compound 252, N-(1-(2-aminoethyl)piperidin-4-yl)-1-(trifluoromethyl)-10H-phenothiazin-3-amine], the pIC50 in [1] was 5.05. The MIC turned out to be 26 mg/L (≈ 63.6 µM) in experiment [15] (setting [21]) and 7 mg/L (≈ 17.1 µM) in [16] (setting [23]).
`NCCNC(=O)c1ccc2c(c1)Sc1cc(C(F)(F)F)cc(NC3CCN(CCN)CC3)c1N2` [compound 255, N-(2-aminoethyl)-9-((1-(2-aminoethyl)piperidin-4-yl)amino)-7-(trifluoromethyl)-10H-phenothiazine-3-carboxamide trifluroroacetic acid]: the MIC stood at 16 mg/L (≈ 32.4 µM) in [2]; 128 mg/L (≈ 259 µM) in experiment [3]; 8 mg/L (≈ 16.2 µM) in [4] (setting [17]); 8 mg/L (≈ 16.2 µM) in experiment [4] (setting [18]); 64 mg/L (≈ 129 µM) in experiment [5]; 128 mg/L (≈ 259 µM) in experiment [6]. In addition, the MIC is 64 mg/L (≈ 129 µM) in experiment [7] (setting [19]); 16 mg/L (≈ 32.4 µM) in experiment [8]; 32 mg/L (≈ 64.7 µM) in experiment [9] (Enterococcus faecium, ATCC700221, read-out: MIC E. faecium ATCC 700221); 16 mg/L (≈ 32.4 µM) in experiment [10]; 128 mg/L (≈ 259 µM) in [11]; 64 mg/L in experiment [12]. Also, the MIC in experiment [13] (Staphylococcus aureus, read-out: MIC S. aureus MRSA ATCC 33591) came out at 16 mg/L (≈ 32.4 µM); in [14] it was 64 mg/L (≈ 129 µM); in [15] (ATCC25922, read-out: E. coli MIC), 39 mg/L (≈ 78.9 µM); in experiment [15] (setting [22]), 64 mg/L (≈ 129 µM); in experiment [16] (ATCC25923, read-out: S. aureus ("Clinical") MIC, Table 15), 2 mg/L (≈ 4.04 µM).
